Active and inactive are the calls of the source.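 How the source made its calls: active means compounds whose fitted half-maximal concentration in the cell-protection dose series is at or below a set limit; inactive means the rest.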

The experiment relates to H9c2 cardiomyocytes, 2-deoxyglucose stress, ATP luminescence, 2 h. Description: protection of cardiomyocytes from 2-deoxyglucose injury, dose response, cell-based, 2-deoxyglucose stress, uHTS hits (AID 588780).
As for `COc1ccc(NS(=O)(=O)c2cc(NC(=O)Cc3n[nH]c(=O)c4ccccc34)ccc2OC)cc1`, the IC50 is > 79 µM (inactive).
With `Cn1c(=O)c2[nH]c(NN=Cc3cccc(Br)c3)nc2n(C)c1=O` the figure was > 79 µM (inactive).
The same measure for `CCOC(=O)N1CCC(N2C(=O)c3ccccc3C2Nc2cc(OC)c(OC)c(OC)c2)CC1` (stereo not given): > 79 µM (inactive); for `CC(=O)Oc1ccc(C(=O)OCC(=O)c2c(N)n(C)c(=O)n(C)c2=O)cc1OC(C)=O`: 31.8 µM (inactive); for `C=CCc1ccccc1OCC(=O)N/N=C/c1ccc(OC(C)=O)cc1OC(C)=O`: > 79 µM (inactive).
For `O=C(CCCSc1nc2sc3c(c2c(=O)[nH]1)CCC3)NCCO`, the IC50 is > 79 µM (inactive).
The same measure for `CSc1nc2ccc(S(=O)(=O)Nc3c(C)n(C)n(-c4ccccc4)c3=O)cc2s1`: > 79 µM (inactive); for `COc1cc2c(C#CCCCO)c(-c3ccsc3)oc(=O)c2cc1OC`: > 79 µM (inactive); for `CC(=O)Nc1cccc(NC(=O)c2cc(-c3cccnc3)nc3ccc(Br)cc23)c1`: > 79 µM (inactive).
Turning to `COc1cc(/C=C/c2nc(-c3ccccc3O)n[nH]2)cc(OC)c1OC`, the IC50 is > 79 µM (inactive).
The same measure for `CC(=O)c1ccc(-c2[nH]c3ccccc3c2CCN2C(=O)c3ccccc3C2=O)cc1`: > 79 µM (inactive).
With `Cc1cc(C)c2c(N)c(C(=O)N/N=C/c3cccnc3)sc2n1` the figure was 19.1 µM; with `COc1cccc(C(=O)Nc2nnc(-c3ccc(Cl)cc3)o2)c1`, 14.9 µM; with `Nc1c(C(=O)NC2CCCC2)c2nc3ccccc3nc2n1N`, > 79 µM (inactive).
The same measure for `COc1cccc(Nc2nc3ccccc3n3cnnc23)c1`: 12.5 µM; for `COc1cccc(-c2cnc3c(NC=O)cc(-c4cccc(NC(C)=O)c4)cn23)c1`: > 79 µM (inactive).
As to `CC(=O)c1cccc(-c2cnc3c(NC=O)cc(-c4ccc(F)cc4)cn23)c1`, the IC50 is > 79 µM (inactive).
On to `c1ccc(N2CCOCC2)c(Nc2nc3ccccc3n3cnnc23)c1`, for which the IC50 is 23.4 µM.
For `CCOC(=O)N1CCC(n2c(SCC(=O)N3CCC(C)CC3)nc3ccccc3c2=O)CC1`, the IC50 was > 79 µM (inactive).
The same measure for `CCOC(=O)Cc1csc(NC(=O)NC2(C(F)(F)F)Oc3ccc(Cl)cc3O2)n1` (stereo not given): > 79 µM (inactive); for `CCN(Cc1ccccc1)C(=O)c1cc2c(=O)oc3ccc(C)cc3c2s1`: > 79 µM (inactive); for `COc1ccc(OC)c(N(CC(=O)Nc2cccnc2)S(=O)(=O)c2ccc(OC)c(OC)c2)c1`: 42.7 µM (inactive).
With `O=c1cc(-c2cccnc2)oc2c1ccc1ccccc12` the figure was 12.6 µM; with `COc1ccc(-n2c(C)c(C(C)=O)c3cc(OC(C)=O)ccc32)cc1`, 25.2 µM.
As to `COCCCN(Cc1ccco1)C(=O)Cn1ncc2c([nH]c3ccccc32)c1=O`, the IC50 was 13.8 µM.
With `Cc1cc(NC(=O)COC(=O)COc2ccc3c4c(c(=O)oc3c2)CCC4)no1` the figure was > 79 µM (inactive); with `CCOc1ccc(N(CC(=O)N/N=C/c2ccccn2)S(=O)(=O)c2ccc(Cl)cc2)cc1`, > 79 µM (inactive); with `COc1ccc2occ(C(=O)c3coc4ccc(O)c(CN(C)C)c34)c2c1`, > 79 µM (inactive).
With `CN(C(=O)c1sc2nc(N3CCOCC3)c3c(c2c1N)CCCC3)c1ccccc1` the figure was 5.73 µM; with `COc1ccc2[nH]c(=O)c(CN(Cc3nnnn3Cc3ccccc3)CC3CCCO3)cc2c1` (stereo not given), > 79 µM (inactive); with `COCCCNC(=O)/C(C#N)=C1\N=C(NC(=O)c2cccs2)c2ccccc21`, > 79 µM (inactive).
With `CCCCOc1ccc(C(=O)NCC(=O)N(C)Cc2nc3ccccc3c(=O)[nH]2)cc1` the figure was > 79 µM (inactive).
On to `Cc1ccc(N2CC(C(=O)NCc3n[nH]c(=O)c4ccccc34)CC2=O)cc1C` (stereo not given), for which the IC50 was > 79 µM (inactive).
For `O=C(COC(=O)c1c2c(nc3ccccc13)/C(=C/c1cccc([N+](=O)[O-])c1)CCC2)NC1CCS(=O)(=O)C1` (stereo not given), the IC50 was 13.4 µM.
With `O=C(Nc1cccc2cccnc12)c1ccc2sc([C@H]3C[C@H](O)[C@@H](CO)O3)nc2c1` the figure was 14.3 µM; with `COc1cc(/C=C/c2nc3ccccc3c(=O)n2-c2ccc(O)cc2)ccc1O`, 9.14 µM; with `N#Cc1ccccc1OCC(=O)Nc1nc(-c2ccccn2)cs1`, > 79 µM (inactive).
The same measure for `O=C(NCCN1CCOCC1)c1cnn2c(-c3ccccc3)cc(-c3ccccc3)nc12`: 18.5 µM.
With `Cc1nnc2ccc(-c3cccc(NC(=O)c4ccc(Cl)nc4)c3)nn12` the figure was 22.1 µM.
As for `COc1cc(C(=O)Nc2nc(OC)c(-c3ccccc3)c(OC)n2)cc(OC)c1OC`, the IC50 is > 79 µM (inactive).
With `O=C(Nc1cccnc1)c1sc(Nc2ccccc2)nc1-c1ccccc1`, the IC50 was > 79 µM (inactive).
On to `CC(=O)c1cccc(NC(=O)Nc2ccc3c(c2)N(C)C(=O)CS3)c1`, for which the IC50 is > 79 µM (inactive).
Turning to `O=C(CCCSc1ccccc1)Nc1nc(-c2ccccn2)cs1`, the IC50 is > 79 µM (inactive).
The same measure for `COc1cc2ccnc(C=O)c2cc1OC`: > 79 µM (inactive); for `CCOc1ccc2[nH]c(=O)c(CN(Cc3ccco3)C(CC)c3nnnn3Cc3ccccc3)cc2c1` (stereo not given): > 79 µM (inactive).
Turning to `CCCc1nc2ccccc2c(C(=O)OCc2nnc(-c3cc(OC)c(OC)c(OC)c3)o2)c1CC`, the IC50 is 11 µM.
`O=C(N/N=C/c1ccccn1)c1cc(-c2ccc(Cl)s2)[nH]n1`: the IC50 is > 79 µM (inactive).
With `CCn1c(O)c(/C=N/N=C2CCCC2)c2ccc(C3=NNC(=O)CC3)cc21` the figure was > 79 µM (inactive); with `COc1ccc(C2CCCCCN2C(=O)C2CCN(S(=O)(=O)c3cccc(C(C)=O)c3)CC2)cc1` (stereo not given), > 79 µM (inactive); with `COc1ccc(Cl)cc1NC(=O)CN(C)C(=O)Cn1[nH]c(=O)c2ccccc2c1=O`, > 79 µM (inactive).
As for `C=CCOc1ccc(C=Nc2ccc(OC)cc2)c(O)c1`, the IC50 is 23.8 µM.
With `Nc1nonc1-n1nnc(C(=O)N/N=C/c2ccccn2)c1CNc1ccccc1` the figure was 37.7 µM (inactive); with `COc1cc(NC(=O)c2cc3ccccc3cc2OC)ccc1NC(=O)c1cccs1`, > 79 µM (inactive); with `COc1ccc(-c2cc(C(=O)N3CCN(c4ccccc4)CC3)c3ccccc3n2)cc1OC`, > 79 µM (inactive).
Take `CCOC(=O)c1ccc(-c2ccc(/C=C(\C#N)C(=O)NCC3CCCO3)o2)cc1` (stereo not given): the IC50 was > 79 µM (inactive).
The same measure for `Cn1c(=O)c2[nH]c(NN=Cc3ccc(Br)cc3)nc2n(C)c1=O`: > 79 µM (inactive); for `CC1(NC(=O)CCc2nc3ccccc3c(=O)[nH]2)CCS(=O)(=O)C1` (stereo not given): > 79 µM (inactive); for `COc1ccc(-n2cc(-c3ccccc3)c3c(N4CCOCC4)ncnc32)cc1`: > 79 µM (inactive).
The same measure for `CN1CCC(N(C)C(=O)CCc2nc3ccccc3c(=O)[nH]2)CC1`: > 79 µM (inactive); for `C=CC[C@@H](CC(=O)NCCO)C(=O)NC[C@H](OC(=O)[C@@H](CC=C)Cc1ccc(F)cc1)c1ccccc1`: > 79 µM (inactive).

Source of the values: PubChem BioAssay AID588780 (Sanford-Burnham Center for Chemical Genomics, 2011).
